Test results as given in patent US20260294885A1, “TREATMENT OF INFLAMMATORY CONDITIONS COMPRISING IMU-856” (IMMUNIC AG, priority 2023, published 2026).
Where two headings read alike, the source gives them in different places.

Assays:
DSS-induced colitis = experiment: Therapeutic DSS-induced colitis mouse model (Example 3); format: in vivo, male C57BL/6 mice; settings: 1 mg/kg per oral gavage once daily for 5 days from disease onset
Experimental: For this model, which is an often-used in vivo model for IBD, male C57BL/6 mice were treated with 2.8% DSS in drinking water for 5 days. Treatment with either vehicle (PEG400), 60 mg/kg sulfasalazine (positive control) or 1 mg/kg IMU-856 was given at disease onset (day 4 after start of DSS treatment) per oral gavage once daily for 5 days. Diarrhea score (normal consistency; soft; pasty, unshaped, not sticking to anus; diarrhea, sticking to anus; diarrhea with macroscopic bleeding) was assessed daily.
At the end of the study, mice were sacrificed and the colon was collected. Colon histology score consisting of an architecture score (0-3) and an infiltration score (0-3) was assessed based on hematoxylin and eosin-stained tissues slices.

[1] = tested on: patients with celiac disease; experiment: Phase Ib safety in patients with celiac disease (Part C); format: in vivo, human
Experimental: (§1) In Part A, healthy subjects were randomised to single ascending doses of IMU-856 (10 mg to 160 mg) or placebo. In Part B healthy subjects were randomised to multiple once-daily doses of IMU-856 (40, 80, and 160 mg) or placebo for 14 days. Part C randomised patients with celiac disease who were on a gluten-free diet to multiple once-daily doses of IMU-856 (80 mg and 160 mg) or placebo for 28 days; a once-daily gluten challenge (6 g) was introduced on Day 14 and ended on Day 28. 71 healthy subjects were enrolled in Part A and B (N=19 placebo and N=52 IMU-856) and 43 patients with CelD in Part C (N=14 placebo; N=14 for 80 mg, and N=15 for 160 mg). In Parts A and B, treatment-emergent adverse events (TEAEs) occurred in 24 (73%) and 15 (79%) of subjects receiving any dose of IMU-856 compared to 6 (50%) and 5 (71%) with placebo, respectively. […] In Part C, the most common adverse events with any dose of IMU-856 by preferred term were headache (13 [45%]), nausea (9 [31%]), diarrhoea (8 [28%]), and abdominal distension (7 [24%]). […] In Part C, the mean change in villous height from baseline to Day 29 with 80 mg and 160 mg was −20.9±34.8 μm, and −22.5±51.1 μm, respectively, and −60.3±52.2 μm with placebo. […] Mean change in plasma citrulline increased with 80 mg and 160 mg from baseline to Day 14 (2.4±6.2 and 6.1±5.9 μmol/L, respectively) and from baseline to Day 29 (2.8±7.6 and 2.2±5.3 μmol/L, respectively), but not with placebo (−2.7±5.6 and −4.0±6.5 μmol/L). […] Mean increase in zinc levels from baseline to Day 29 with 80 mg and 160 mg were 0.3±1.4 and 0.9±2.1 μmol/L compared to a mean decrease in placebo (−0.9±2.1 μmol/L). Gluten-induced symptoms were also attenuated by IMU-856.
(§2) FIG. 1 illustrates the flow chart of part C in celiac disease (CelD) designed as proof-of-concept study with a gluten challenge trial. Part C was planned to include a well-controlled celiac disease patient population: The patients were 100% seronegative, indicating absence of ongoing substantial gluten exposure and was performed at sites in Australia and New Zealand. Part C was designed to assess safety, tolerability and pharmacokinetics of IMU-856 and measured also histologic changes, blood biomarkers, nutrient uptake and disease-related symptoms.

claudin-2 = experiment: Tight junction protein claudin-2 in a TEER model; format: cell-based, human
Source text: (§3) In one TEER model, tight junction (TJ)-related proteins were investigated, and a normalisation of TJ proteins (claudin (Cldn)-1 and claudin-2) was observed.

healthy subjects = experiment: Phase I safety in healthy subjects (Parts A and B); format: in vivo, human
Experimental: as §1

SIRT6 [2] = biological target: T1, SIRT6 (Homo sapiens, UniProt Q8N6T7); experiment: SIRT6 deacetylation of acetylated H3K56 in a cellular system; format: cell-based
T1 sequence (Q8N6T7 whole entry): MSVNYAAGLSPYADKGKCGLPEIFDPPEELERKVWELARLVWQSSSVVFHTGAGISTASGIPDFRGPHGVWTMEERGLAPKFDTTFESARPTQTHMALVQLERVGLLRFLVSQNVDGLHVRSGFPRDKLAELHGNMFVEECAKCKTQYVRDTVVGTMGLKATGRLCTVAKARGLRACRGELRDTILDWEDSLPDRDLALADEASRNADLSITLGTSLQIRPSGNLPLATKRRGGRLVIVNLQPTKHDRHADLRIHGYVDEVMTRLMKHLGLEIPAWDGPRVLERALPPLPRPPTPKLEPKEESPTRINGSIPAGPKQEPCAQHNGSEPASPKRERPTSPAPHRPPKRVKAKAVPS

[3] = tested on: other members of the human SIRT protein family; experiment: Selectivity over other members of the SIRT family; format: biochemical
[4] = Clinical pharmacokinetics; format: in vivo, human
Experimental: as §1

SIRT6 [5] = biological target: T1, SIRT6; experiment: Inhibition of SIRT6 deacetylation of acetylated H3K56, in vitro cell free; format: biochemical
[6] = Pharmacokinetics in celiac disease patients, Part C; format: in vivo, human; settings: for Cmax at 192 h / Tmax at 192 h / AUC(0-t) at 192 h: human, in vivo, Day 8, mean; for AUC(0-t) at 192 h: read-out: AUC0-t last
Experimental: as §2

claudin (Cldn)-1 = experiment: Tight junction protein claudin-1 in a TEER model; format: cell-based, human
Source text: as §3

[7] = tested on: dextran sodium sulphate (DSS)-induced colitis; experiment: DSS-induced colitis model in mice (different settings); format: in vivo; settings: different settings of DSS colitis model
[8] = tested on: other histone deacetylases (HDACs); experiment: Enzymatic activity of other histone deacetylases; format: biochemical
[9] = tested on: patients with celiac disease; experiment: Duodenal biopsy histology with gluten challenge (villous height, Vh:Cd, Q-MARSH), Part C; format: in vivo, human; settings: for reduction in villous height: two weeks of 6 g/day gluten challenge; for mean change in villous height: baseline to Day 29, gluten challenge 6 g/day
Experimental: as §1, §2

[10] = Part A, any single dose (10 mg to 160 mg)
[11] = Part B, any dose (40, 80, 160 mg once daily, 14 days)

Cn1c(COc2cc(C(F)(F)F)ccn2)nnc1[C@H]1CC[C@H](c2cnn([C@H]3CC[C@H](N4CC5(CCO5)C4)CC3)c2)CC1 [IMU-856, 6-(trans-4-(4-(trans-4-(4-methyl-5-(((4-(trifluoromethyl)pyridin-2-yl)oxy)methyl)-4H-1,2,4-triazol-3-yl)cyclohexyl)-1H-pyrazol-1-yl)cyclohexyl)-1-oxa-6-azaspiro[3.3]heptane]
colon histology score (DSS-induced colitis): reduction in the histology score
diarrhea score (DSS-induced colitis): improvement of the diarrhea score which was similar or even better than the positive control
serious adverse events [1]: 1
abdominal distension (number) ([1]; any dose): 7
abdominal distension (percentage) ([1]; any dose): 24%
diarrhoea (number) ([1]; any dose): 8
diarrhoea (percentage) ([1]; any dose): 28%
headache (number) ([1]; any dose): 13
headache (percentage) ([1]; any dose): 45%
nausea (number) ([1]; any dose): 9
nausea (percentage) ([1]; any dose): 31%
claudin-2 (claudin-2): normalisation
subjects with TEAEs (number) (healthy subjects; [10]): 24
subjects with TEAEs (percentage) (healthy subjects; [10]): 73%
serious adverse events (healthy subjects; Part B): 1
subjects with TEAEs (number) (healthy subjects; [11]): 15
subjects with TEAEs (percentage) (healthy subjects; [11]): 79%
severity of TEAEs (healthy subjects; Parts A and B): mild in severity
deacetylation of H3K56 (SIRT6 [2]): prevents the deacetylation
selectivity for SIRT6 over other SIRT family members [3]: highly selective for SIRT6
accumulation factor ([4]; daily dosing): low accumulation factor
steady-state plasma concentrations, time to achievement ([4]; daily dosing): within the first week
half-life ([4]; human, plasma, steady-state): 17.4 to 21.5 h
Tmax ([4]; human, plasma, steady-state, post-dose): 2 to 3 h
steady-state trough levels ([4]; over the 14-day treatment period): stable steady-state trough levels
AUC dose dependence ([4]; steady-state): dose proportional increases
Cmax dose dependence ([4]; steady-state): dose proportional increases
inhibition of deacetylase activity of SIRT6 (SIRT6 [5]): selective inhibitor of the deacetylase activity
deacetylation of H3K56 (SIRT6 [5]; in vitro cell free system): prevents the deacetylation
achievement of steady state ([6]; Part C): fast achievement of steady state
dose linearity of plasma Cmax and AUC ([6]; Part C): linear pharmacokinetics with dose-proportional increase
mean trough levels / exposure over dosing period ([6]; Part C): constant exposure within the whole dosing period
Cmax at 192 h ([6]; IMU-856 80 mg): 354 ng/mL
Tmax at 192 h ([6]; IMU-856 80 mg): 1.9 h
AUC(0-t) at 192 h ([6]; IMU-856 80 mg): 1570 ng·h/mL
Cmax at 192 h ([6]; IMU-856 160 mg): 766 ng/mL
Tmax at 192 h ([6]; IMU-856 160 mg): 1.5 h
AUC(0-t) at 192 h ([6]; IMU-856 160 mg): 3610 ng·h/mL
claudin-1 (claudin (Cldn)-1): normalisation
colon length [7]: increasing colon length
colon mucosal histology [7]: improving colon mucosal histology
diarrhea symptoms [7]: improving diarrhea symptoms
disease severity [7]: reducing disease severity
inhibition of enzymatic activity of other HDACs [8]: does not inhibit
reduction in villous height ([9]; 80 mg (N=11)): 20.9 μm
mean change in villous height ([9]; 80 mg once daily): −20.9±34.8 μm
reduction in villous height ([9]; 160 mg (N=13)): 22.5 μm
mean change in villous height ([9]; 160 mg once daily): −22.5±51.1 μm
villous height protection versus placebo ([9]; Baseline to Day 29): protects villous height as compared to placebo, reaching statistical significance
patients with improvement in one Q-MARSH category ([9]; Day 29, after gluten challenge): two and Two
Q-MARSH histological damage ([9]; change in Q-MARSH score between Baseline and Day 29): signals of preventing histological damage
